In publication PMC12530846, “Development of Novel Anticancer Pyrazolopyrimidinones Targeting Glioblastoma” (Chemmedchem, 2025):
Read-outs that look alike come from different tables or passages of the source.

Tests used:
U‐251 MG cells [1] = test: MTT cell viability assay, U‐251 MG glioblastoma cells, 5 days treatment; format: cell-based, human; details: 5 days treatment, 100–0 µM
Procedure: (§1) Dose–response curves for each of the pyrazolo[1,5‐α]pyrimidinones were performed to determine the cytotoxic effect of the compounds on a cancerous, U‐251 MG cell line and a noncancerous, HEK293 cell line. The synthesized pyrazolopyrimidinones were dissolved in DMSO (Merck) to obtain a stock solution which was stored at −20 °C. […] U‐251 MG and HEK293 cells were seeded at a density of 2 x 10^3 cells per well (100 μL) in a 96‐well plate (Sarstedt) and incubated for 24 h prior to each treatment to allow for cell adhesion. The stock solution was diluted in media to working concentrations of 100, 75, 50, 25, 10, 5, and 0.1 μM. Media on the seeded cells was then replaced with the working concentrations of the compound or the controls in a 96‐well plate (100 μL). The treated plate was incubated at 37 °C in the humidified incubator for 5 days. Cell viability was assessed after 5 days using the MTT assay. Dose–response curves were then plotted relative to the positive control whereby cells were treated 20% DMSO and a negative control whereby cells were maintained in fresh DMEM.
(§2) To determine the extent of the cytotoxic effect of the pyrazolopyrimidinone on each cell line, the cell viability at each working concentration was determined via the MTT assay (Merck). The working solution of MTT used was 5 mg MTT per 1 ml of PBS diluted in 9 ml of media. After 5 days of incubation, the treatment was removed from each of the wells and replaced with 100 μL of fresh MTT solution. The plate was then incubated for 3 h at 37 °C in a humidified incubator to allow the reduction of the yellow tetrazolium salt to purple formazan crystals. After the incubation, the MTT solution was removed from the wells and replaced with 100 μL of DMSO for 15 min to dissolve the formazan crystals. The absorbance was read at 570 nm using a spectrophotometric microplate reader (Thermo Fisher Scientific).
(§3) Each of the experiments was performed at least three independent times, with a minimum of six technical replicates per experiment. Statistical analysis was carried out using GraphPad Prism version 8.0.0 (GraphPad Softwares, Inc.). Curve fitting and the IC50 values were obtained through the dose–response curves using nonlinear regression. To determine if the dose–response curves were statistically distinct and not overlapping, extra sum‐of‐squares F‐test was used, and a p‐value was obtained. The effect of compound treatment on both cell lines was statistically compared via two‐way ANOVA with Tukey's post‐test. The CytExpert (Beckman Coulter) software was used for flow cytometry analysis. Graphs represent the % dead cells whereby the total number of dead cells was divided by the total cell population. The statistical significance of the flow cytometry results was determined via one‐way analysis of variance (ANOVA) with Dunnett's T3 multiple comparison post‐test. Data is presented as the mean ± standard error of mean (SEM). Summary of results from statistical analysis reports p‐values as follows: ≥0.05 (ns), 0.01–0.05 (*), 0.001–0.01 (**), […], and <0.0001(****).

[2] = test system: U‐251 MG and HEK293 cells; test: Statistical comparison of dose–response in U‐251 MG versus HEK293 (selectivity, HIT criteria); format: cell-based, human; details: for Selectivity for cancer cells with IC50 < 50 [µM]‐Yes/No: HEK293 IC50 higher than U‐251 MG IC50, U‐251 MG IC50 below 50 µM; for All criteria met -Yes/No: HIT criteria and statistical testing, Table S1
U‐251 MG cells [3] = test: Propidium iodide (PI) flow cytometry, cell membrane permeabilization; format: cell-based, human; details: 5 days; for PI: significance of cell death, Neg Ctrl v HNT: highest non-toxic concentration; for PI: significance of cell death, Neg Ctrl v 50 µM: highest toxic concentration 50 µM
Procedure: Propidium iodide (PI) is a DNA staining, cell membrane impermeable dye which was used to assess cell death via loss of membrane integrity and is used to indicate necrotic or late apoptotic cells. Stock solutions of PI dye (Merck, Ireland) were prepared at 10 μg/mL in PBS and stored at −20 °C. U‐251 MG cells were seeded in 96‐well plates at a seeding density of 2 x 10^3 cells per well (100 μL), as previously stated. […] Subsequently, the compound was collected in 15 ml falcon tubes. Cells were washed with PBS (100 μL), and the PBS was collected in corresponding tubes to ensure all cells are collected. The cells were collected using 0.25% trypsin‐EDTA (50 μL) with a 6‐min incubation and media neutralization (100 μL). Each tube was centrifuged at 1200rpm for 5 min to obtain a pellet. The supernatant was removed, and the pellet was resuspended in PBS and transferred to an Eppendorf tube. Ten microliters of PI stain (2.5 μg/ml) was added to the Eppendorf tubes, and the tubes were incubated for a period of 15 min. Cells were also treated using controls whereby the positive control used was DMEM and 20% DMSO and the negative control used was fresh media. The cells were then analyzed using flow cytometry (Beckmann Coulter, CytExpert version 2.4.0.28). Fluorescence was measured using the FL2 channel. PI was detected in the red channel which is R‐phycoerythrin (PE‐Cy5). PE was used in combination with fluorescein isothiocyanate (FITC) and is excited at a wavelength of 488 nm.
as §3

U‐251 MG cells [4] = test: JC‐1 flow cytometry, mitochondrial membrane depolarization / apoptosis; format: cell-based, human; details: U‐251 MG, 5 days; for JC-1: significance of cell death, Neg Ctrl v HNT: highest non-toxic concentration; for JC-1: significance of cell death, Neg Ctrl v 50 µM: highest toxic concentration 50 µM
Procedure: JC‐1 dye forms aggregates in healthy mitochondria which changes the fluorescent property of the dye. […] Stock solutions of JC‐1 dye (Merck) were prepared at 1 mg/mL in DMSO and stored at −20 °C. U‐251 MG cells were seeded in 6‐well plates (Sarstedt) at a seeding density of 2 x 10^4 cells per well (1000μL) after which cells were treated with drug concentrations (highest toxic, IC50, nontoxic). After 5 days incubation, the compound and wash step with PBS was collected in falcon tubes. The cells were then harvested by trypsinization (500 μL), incubated for a period of 6 min, neutralized with media (1000 μL), and pelleted at 1200rpm for 5 min. A JC‐1 working solution of 2 μg/mL was made up in DMEM and was light protected. The cell pellet was resuspended and stained with 2 μg/mL JC‐1 dye and incubated and protected from the light for a period of 10 min. Cells were then centrifuged at 1200rpm for 5 min. The supernatant was removed, and cells were washed with 1 mL of sterile PBS. This was repeated twice. […] Cells were also treated using controls whereby the positive control used was DMEM and 20% DMSO and the negative control used was fresh media. The cells were then analyzed using flow cytometry (Beckmann Coulter, CytExpert version 2.4.0.28). Fluorescence was measured using FL1 (FITC) (530 nm) and FL2 (PE) (595 nm) channels with emission.
as §3

HEK293 cells = test: MTT cell viability assay, noncancerous HEK293 cells, 5 days treatment; format: cell-based, human; details: for IC50: 5 days treatment, 100–0 µM
Procedure: as §1, §2, §3

U‐251 MG cells [5] = test system: U‐251 MG cells; design: method as in He and colleagues (2021); details: after 2 days of treatment; ref He and colleagues (2021); read-out: cytotoxicity against U‐251 MG cells (IC50); cited from earlier work

Compound | IC50 (U‐251 MG cells [1]) [nM] | IC50 (U‐251 MG cells [1]; Homo sapiens, U-251, 120 h) [nM] | Selectivity for cancer cells with IC50 < 50 [µM]‐Yes/No [2] | All criteria met -Yes/No [2] | cell membrane permeabilization‐dependent cell death (PI), in words (U‐251 MG cells [3]) | PI: significance of cell death, Neg Ctrl v HNT (U‐251 MG cells [3]) | PI: significance of cell death, Neg Ctrl v 50 µM (U‐251 MG cells [3]) | JC-1: significance of cell death, Neg Ctrl v HNT (U‐251 MG cells [4]) | JC-1: significance of cell death, Neg Ctrl v 50 µM (U‐251 MG cells [4]) | IC50 (HEK293 cells) [µM] | cytotoxicity / biological response in HEK293, in words (HEK293 cells; 5 days, up to 100 µM, threshold 50 µM) | IC50 (HEK293 cells; Homo sapiens, HEK293, 120 h) [µM] | IC50 (U‐251 MG cells [5]) [µM]
O=c1cc(-c2cc(C(F)(F)F)cc(C(F)(F)F)c2)[nH]c2cc(-c3ccc(C(F)(F)F)cc3)nn12 [Compound 9] | 27500 | 26800 | Yes | Yes | significant cell membrane permeabilization‐dependent cell death | ns (≥0.05 (ns)) | **** (<0.0001(****)) | ns (≥0.05 (ns)) | ** (0.001 to 0.01 (**)) | 54.4 | did not elicit any biological response | > 50 | –
O=c1cc(-c2ccccc2)[nH]c2cc(-c3ccccc3)nn12 [Compound 15] | – | 19900 | No | No | – | – | – | – | – | – | – | 15.9 | 77.7
O=c1cc(-c2cc(C(F)(F)F)cc(C(F)(F)F)c2)[nH]c2cc(-c3cccc(Br)c3)nn12 [Compound 21, 5‐(3,5‐Bis(trifluoromethyl)phenyl)‐2‐(3‐bromophenyl)pyrazolo[1,5‐α]pyrimidin‐7(4¬H)‐one] | 710 | 714 | Yes | Yes | significant cell membrane permeabilization‐dependent cell death | ns (≥0.05 (ns)) | **** (<0.0001(****)) | *** (0.001 to 0.01(***)) | *** (0.001 to 0.01(***)) | – | – | 19 | –
O=c1cc(-c2cc(C(F)(F)F)cc(C(F)(F)F)c2)[nH]c2cc(-c3ccccc3Br)nn12 [Compound 22] | 2790 | 2790 | Yes | Yes | significant cell membrane permeabilization‐dependent cell death | – | **** (<0.0001(****)) | ns (≥0.05 (ns)) | * (0.01 to 0.05 (*)) | – | – | 66.9 | –
